Test results taken from paper PMC10706475 (International Journal of Molecular Sciences, 2023).
Several values for one entry are separate records, joined by “and”; a condition that tells them apart may be missing. Identical values can stand only once. Like-named read-outs stand apart in the source and are kept apart here.

Assays:
[1] = in vivo activity (i.p.), test not specified; settings: 100 and 300 mg/kg (i.p.); test not named
Method: Sodium metavanadate (NaO3V) (Sigma, St. Louis, MO, USA) was utilized in this study. Novel NMDA-Receptor antagonist, ZA-II-05, is a bicyclic aryl cyclohexylamine, designed and synthesized in our lab, fully active at 100 and 300 mg/kg (i.p.). Several tests established the safety of the compound at dosages envisioned in this study.

[2] = biological target: T1, Dopamine 1 (D1) (Homo sapiens, UniProt P21728); test: radioligand binding, Dopamine 1 (D1); settings: [3H] SCH23390, cloned human receptor; read-out: D1 binding affinity (Ki)
T1 construct: expressed in transfected cells

[3] = system: dendritic density and arborizations; type: in vivo, mice; settings: coadministration of ZA-II-05 with […], vs […]-treated group
[4] = system: IBA1; type: in vivo, mice; settings: ZA-II-05 treated groups vs […] group
[5] = system: NeuN; type: in vivo, mice
[6] = biological target: T2, D2 (Homo sapiens, UniProt P14416); test: radioligand binding, D2; settings: [3H] N-Methylspiperone, cloned human receptor; read-out: D2 binding affinity (Ki)
T2 construct: expressed in transfected cells

[7] = locomotion and motor coordination; type: in vivo, mice; settings: treatment with ZA-II-05 in vanadium-induced neurotoxicity
[8] = biological target: T3, Dopamine Transporter (DAT) (Homo sapiens, UniProt Q01959); test: radioligand binding, Dopamine Transporter; settings: [3H] WIN35428, cloned human transporter
T3 construct: expressed in transfected cells

[9] = system: H2O2; parameters: species or system mice; settings: mouse, in vivo
[10] = biological target: T4, κ-opioid receptors (KOR) (Rattus norvegicus, UniProt P34975); test: biochemical; type: binding; settings: read-out: κ-Opiod Receptor Ki
T4 construct: expressed in transfected cells

[11] = biological target: T5, Norepinephrine Transporter (NET) (Homo sapiens, UniProt P23975); test: radioligand binding, Norepinephrine Transporter; settings: [3H] Nisoxetine, cloned human transporter; read-out: NET binding affinity (Ki)
T5 construct: expressed in transfected cells

[12] = biological target: T6, Sigma1 (Rattus norvegicus, UniProt Q9R0C9); test: radioligand binding, Sigma1; settings: [3H] Pentazocine (+), rat brain; read-out: Sigma 1 binding affinity (Ki)
T6 construct: Sigma1; Pentazocine (+); Rat; Brain; from tissue; host or cells: rat brain

[13] = system: GFAP; parameters: species or system mice; settings: mouse, in vivo
[14] = biological target: T7, 5-HT2A (Homo sapiens, UniProt P28223); test: radioligand binding, 5-HT2A; settings: [3H] Ketanserin, cloned human receptor; read-out: 5HT2A binding affinity (Ki)
T7 construct: expressed in transfected cells

[15] = biological target: T8, Serotonin Transporter (SERT) (Homo sapiens, UniProt P31645); test: radioligand binding, Serotonin Transporter; settings: [3H] Citalopram, cloned human transporter; read-out: SERT binding affinity (Ki)
T8 construct: expressed in transfected cells

[16] = system: Non-protein thiol (NPT); type: in vivo, mice
[17] = system: Myelin Basic Protein (MBP); parameters: species or system mice; settings: mouse, in vivo
[18] = system: organotypic rat hippocampal slices; type: cell-based
[19] = biological target: T9, µ-opioid receptors (MOR) (Homo sapiens, UniProt P35372); test: radioligand binding, µ-opioid receptor; settings: read-out: μ-Opiod Receptor Ki
T9 construct: expressed in transfected cells

[20] = biological target: GluN1/GluN2A (Rattus norvegicus, UniProt P35439+Q00959); test: [3H] MK801 binding assay, transfected HEK293 cells, GluN1/GluN2A
[21] = system: nitric oxide (NO); type: in vivo, mice
[22] = system: tumor necrosis factor-alpha (TNF-α)
[23] = system: total thiol (PT); type: in vivo, mice
[24] = biological target: T10, Sigma2 (Rattus norvegicus, UniProt Q5U3Y7); test: radioligand binding, Sigma2
T10 construct: Sigma2; DTG; Rat; PC12; endogenous in cells; host or cells: PC12

[25] = system: Vitamin C; type: in vivo, mice
[26] = ZA-II-05 only 100 mg/kg i.p. every 72 h, one month, mouse brain

T1 sequence (P21728 whole entry): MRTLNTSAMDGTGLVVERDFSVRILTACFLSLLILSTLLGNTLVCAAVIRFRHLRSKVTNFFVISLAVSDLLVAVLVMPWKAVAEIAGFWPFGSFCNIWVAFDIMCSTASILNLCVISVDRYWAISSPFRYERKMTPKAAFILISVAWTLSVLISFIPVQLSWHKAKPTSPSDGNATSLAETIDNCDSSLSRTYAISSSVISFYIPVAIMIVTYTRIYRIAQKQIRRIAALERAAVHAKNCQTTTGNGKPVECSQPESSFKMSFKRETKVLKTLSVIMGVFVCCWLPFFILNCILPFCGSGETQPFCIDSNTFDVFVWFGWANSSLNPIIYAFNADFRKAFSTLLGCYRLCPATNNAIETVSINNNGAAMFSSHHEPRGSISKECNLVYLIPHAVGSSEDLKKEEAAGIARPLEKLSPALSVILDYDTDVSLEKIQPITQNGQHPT
T5 sequence (P23975 whole entry): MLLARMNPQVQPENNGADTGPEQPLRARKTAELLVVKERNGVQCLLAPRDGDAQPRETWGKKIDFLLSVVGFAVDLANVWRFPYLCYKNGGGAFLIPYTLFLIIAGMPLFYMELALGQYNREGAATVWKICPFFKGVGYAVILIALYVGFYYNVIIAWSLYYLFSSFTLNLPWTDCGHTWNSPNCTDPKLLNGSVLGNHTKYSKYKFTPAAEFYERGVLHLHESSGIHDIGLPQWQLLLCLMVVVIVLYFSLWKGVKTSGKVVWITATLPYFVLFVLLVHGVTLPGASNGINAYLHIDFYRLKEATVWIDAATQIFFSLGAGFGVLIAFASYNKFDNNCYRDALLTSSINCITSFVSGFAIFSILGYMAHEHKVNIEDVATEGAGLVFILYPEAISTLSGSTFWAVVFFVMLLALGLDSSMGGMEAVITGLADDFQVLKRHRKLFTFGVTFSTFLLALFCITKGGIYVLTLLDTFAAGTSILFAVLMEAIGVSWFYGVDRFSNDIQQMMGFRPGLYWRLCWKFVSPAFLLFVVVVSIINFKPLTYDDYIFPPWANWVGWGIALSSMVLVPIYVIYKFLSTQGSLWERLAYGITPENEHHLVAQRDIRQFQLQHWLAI
T2 sequence (P14416 whole entry): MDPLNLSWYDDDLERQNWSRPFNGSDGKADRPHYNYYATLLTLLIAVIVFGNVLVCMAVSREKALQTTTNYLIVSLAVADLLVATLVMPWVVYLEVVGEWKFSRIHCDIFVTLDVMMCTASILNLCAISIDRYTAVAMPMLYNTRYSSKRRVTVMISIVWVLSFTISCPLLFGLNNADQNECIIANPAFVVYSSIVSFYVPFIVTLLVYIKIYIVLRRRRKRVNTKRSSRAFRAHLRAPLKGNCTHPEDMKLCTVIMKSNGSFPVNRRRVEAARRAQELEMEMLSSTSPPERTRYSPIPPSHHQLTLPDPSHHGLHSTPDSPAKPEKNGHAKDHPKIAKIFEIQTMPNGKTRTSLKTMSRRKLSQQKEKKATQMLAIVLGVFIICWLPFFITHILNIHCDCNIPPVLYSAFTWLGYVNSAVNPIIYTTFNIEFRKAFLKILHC
T7 sequence (P28223 whole entry): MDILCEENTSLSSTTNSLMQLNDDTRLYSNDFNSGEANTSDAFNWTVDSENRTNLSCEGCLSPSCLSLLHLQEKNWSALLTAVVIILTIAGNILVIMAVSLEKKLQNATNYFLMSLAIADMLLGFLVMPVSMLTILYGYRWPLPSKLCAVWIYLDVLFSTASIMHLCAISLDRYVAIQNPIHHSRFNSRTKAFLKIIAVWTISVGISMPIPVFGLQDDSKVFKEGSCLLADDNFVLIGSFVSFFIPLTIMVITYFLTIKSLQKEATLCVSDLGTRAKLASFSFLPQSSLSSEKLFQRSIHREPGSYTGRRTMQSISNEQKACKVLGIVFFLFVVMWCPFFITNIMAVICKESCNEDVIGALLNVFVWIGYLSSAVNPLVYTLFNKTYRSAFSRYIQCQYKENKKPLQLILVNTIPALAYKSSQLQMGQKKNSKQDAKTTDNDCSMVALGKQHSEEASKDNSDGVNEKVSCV
T4 sequence (P34975 whole entry): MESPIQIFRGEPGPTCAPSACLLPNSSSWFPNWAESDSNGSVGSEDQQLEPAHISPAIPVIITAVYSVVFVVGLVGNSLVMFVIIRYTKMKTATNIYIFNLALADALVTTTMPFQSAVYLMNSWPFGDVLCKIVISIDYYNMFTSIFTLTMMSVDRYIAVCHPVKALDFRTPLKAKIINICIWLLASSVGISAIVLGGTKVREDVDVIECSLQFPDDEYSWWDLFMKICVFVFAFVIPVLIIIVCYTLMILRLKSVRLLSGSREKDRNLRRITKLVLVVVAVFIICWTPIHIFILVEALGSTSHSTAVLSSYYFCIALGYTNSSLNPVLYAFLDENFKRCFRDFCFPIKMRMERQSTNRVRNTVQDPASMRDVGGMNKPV
T3 sequence (Q01959 whole entry): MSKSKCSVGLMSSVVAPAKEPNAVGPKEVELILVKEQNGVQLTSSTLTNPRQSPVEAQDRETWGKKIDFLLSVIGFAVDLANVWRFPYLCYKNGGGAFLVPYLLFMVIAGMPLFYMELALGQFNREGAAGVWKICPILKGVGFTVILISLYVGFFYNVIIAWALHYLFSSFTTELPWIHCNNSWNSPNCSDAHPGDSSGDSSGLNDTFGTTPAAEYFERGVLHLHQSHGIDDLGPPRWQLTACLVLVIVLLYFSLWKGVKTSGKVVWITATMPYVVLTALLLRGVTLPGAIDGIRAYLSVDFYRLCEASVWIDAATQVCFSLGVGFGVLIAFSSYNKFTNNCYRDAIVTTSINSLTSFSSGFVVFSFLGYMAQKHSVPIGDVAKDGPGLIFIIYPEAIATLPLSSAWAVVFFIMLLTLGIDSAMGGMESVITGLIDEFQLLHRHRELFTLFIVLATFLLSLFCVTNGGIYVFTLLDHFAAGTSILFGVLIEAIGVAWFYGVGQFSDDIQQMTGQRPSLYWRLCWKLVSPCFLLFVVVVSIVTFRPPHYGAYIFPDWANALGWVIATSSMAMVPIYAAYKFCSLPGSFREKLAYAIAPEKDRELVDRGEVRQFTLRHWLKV
T8 sequence (P31645 whole entry): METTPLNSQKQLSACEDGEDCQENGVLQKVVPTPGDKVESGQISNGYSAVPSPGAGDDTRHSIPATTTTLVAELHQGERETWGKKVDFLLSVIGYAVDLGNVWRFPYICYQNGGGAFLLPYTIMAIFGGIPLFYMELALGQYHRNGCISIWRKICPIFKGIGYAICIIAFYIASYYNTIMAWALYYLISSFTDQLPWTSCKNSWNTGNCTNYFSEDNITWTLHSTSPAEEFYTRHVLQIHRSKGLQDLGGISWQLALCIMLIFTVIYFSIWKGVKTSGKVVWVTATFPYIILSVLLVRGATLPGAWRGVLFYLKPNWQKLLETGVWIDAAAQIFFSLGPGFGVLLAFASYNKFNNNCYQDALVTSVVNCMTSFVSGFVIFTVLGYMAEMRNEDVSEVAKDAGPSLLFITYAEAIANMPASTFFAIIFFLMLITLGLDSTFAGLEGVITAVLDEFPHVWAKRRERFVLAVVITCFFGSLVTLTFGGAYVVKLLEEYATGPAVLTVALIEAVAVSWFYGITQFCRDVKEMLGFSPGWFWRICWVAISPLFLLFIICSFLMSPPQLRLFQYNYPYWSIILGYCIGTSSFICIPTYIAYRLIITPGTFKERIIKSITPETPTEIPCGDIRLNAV
Chain of GluN1/GluN2A (Q00959 23-1464, other chains not shown): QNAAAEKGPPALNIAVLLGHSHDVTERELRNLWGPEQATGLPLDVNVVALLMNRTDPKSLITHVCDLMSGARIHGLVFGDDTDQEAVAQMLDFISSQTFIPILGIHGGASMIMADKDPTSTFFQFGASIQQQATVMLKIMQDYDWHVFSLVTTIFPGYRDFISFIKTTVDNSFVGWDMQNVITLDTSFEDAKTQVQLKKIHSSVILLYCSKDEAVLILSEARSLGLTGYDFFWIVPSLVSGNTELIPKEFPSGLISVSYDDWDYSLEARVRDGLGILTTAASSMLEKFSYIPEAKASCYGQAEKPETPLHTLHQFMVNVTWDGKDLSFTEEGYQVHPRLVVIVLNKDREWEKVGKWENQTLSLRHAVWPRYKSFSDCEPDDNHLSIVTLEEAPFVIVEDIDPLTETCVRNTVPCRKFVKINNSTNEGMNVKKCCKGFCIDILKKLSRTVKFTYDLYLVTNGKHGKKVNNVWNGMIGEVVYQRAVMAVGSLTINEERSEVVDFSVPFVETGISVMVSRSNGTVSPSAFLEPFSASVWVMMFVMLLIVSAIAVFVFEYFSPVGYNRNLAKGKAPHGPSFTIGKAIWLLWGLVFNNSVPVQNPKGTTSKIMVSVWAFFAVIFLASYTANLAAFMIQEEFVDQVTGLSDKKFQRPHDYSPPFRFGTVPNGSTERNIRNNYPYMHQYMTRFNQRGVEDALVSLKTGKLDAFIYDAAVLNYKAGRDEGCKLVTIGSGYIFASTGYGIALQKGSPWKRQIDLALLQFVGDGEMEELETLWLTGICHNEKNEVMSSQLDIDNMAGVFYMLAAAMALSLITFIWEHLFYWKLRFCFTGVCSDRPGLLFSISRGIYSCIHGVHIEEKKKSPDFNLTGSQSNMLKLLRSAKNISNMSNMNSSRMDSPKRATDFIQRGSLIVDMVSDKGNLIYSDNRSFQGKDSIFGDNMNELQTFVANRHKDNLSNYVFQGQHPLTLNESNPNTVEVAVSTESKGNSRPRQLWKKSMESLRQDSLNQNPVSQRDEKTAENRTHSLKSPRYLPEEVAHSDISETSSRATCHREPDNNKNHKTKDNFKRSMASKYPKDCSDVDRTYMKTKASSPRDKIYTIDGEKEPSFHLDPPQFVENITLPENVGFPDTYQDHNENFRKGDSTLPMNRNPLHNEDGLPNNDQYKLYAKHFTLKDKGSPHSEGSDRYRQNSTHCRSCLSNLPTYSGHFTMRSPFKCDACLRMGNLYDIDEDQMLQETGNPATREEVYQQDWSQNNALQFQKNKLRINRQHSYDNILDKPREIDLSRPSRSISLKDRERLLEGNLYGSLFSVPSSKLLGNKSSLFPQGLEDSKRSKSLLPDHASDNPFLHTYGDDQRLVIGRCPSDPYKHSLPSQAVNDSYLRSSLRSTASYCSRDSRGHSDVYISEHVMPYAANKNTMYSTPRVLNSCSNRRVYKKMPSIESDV

Q: With `Fc1ccc(C2(NCCCOC3CCCCO3)CC3CCC2C3)cc1` (stereo not shown) [ZA-II-05] as the compound, how does the activity in vivo [1] read?
A: The activity in vivo was “fully active”.

Q: And the Ki [2]?
A: The Ki was > 10 µM.

Q: And the “dendritic length and arborization (Golgi stain)” value [3]?
A: The value was “successfully reversed these dendritic changes induced by vanadium neurotoxicity”.

Q: And the “microglial activation (IBA1)” value [4]?
A: Its value is “quiescence and recovery from activation”.

Q: What about the “NeuN viable cells / neuronal number” value ([5]; ZA-II-05 only 100 mg/kg (ZA treatment only), CA1 and PFC) of the same compound?
A: Its value is “decreased viable cells in CA1 but increased neuronal number and vitality in the prefrontal cortex”.

Q: What about the “NeuN cellular pathology, prefrontal cortex” value ([5]; mouse, in vivo, 100 mg/kg) of the same compound?
A: Its value is “significantly less cellular pathology in the prefrontal cortex compared to the vanadium-exposed groups”.

Q: And the “NeuN, loss of apical dendrites of pyramidal cells, CA1” value ([5]; mouse, in vivo, 100 mg/kg)?
A: Its value is “reversal effect relative to the vanadium-exposed group”.

Q: And the “NeuN, neuronal degeneration of pyramidal cells, CA3” value ([5]; mouse, in vivo, 100 mg/kg)?
A: The value was “reversal effect with reduced cellular toxicity”.

Q: And the Ki [6]?
A: The Ki was > 10 µM.

Q: What about the “locomotion and motor coordination” value [7] of the same compound?
A: Its value is “enhanced locomotion and improved motor coordination”.

Q: And the Ki [8]?
A: Its Ki is 3.16 µM.

Q: What about the H2O2 [9] of the same compound?
A: The H2O2 was 38.89±2.67 and 46.02±0.29.

Q: And the Ki [10]?
A: Its Ki is 1.24 µM.

Q: And the Ki [11]?
A: Its Ki is > 10 µM.

Q: And the Ki [12]?
A: The Ki was > 10 µM.

Q: And the “astrocyte reactivity (GFAP)” value [13]?
A: Its value is “attenuation of astrocyte reactivity”.

Q: And the Ki [14]?
A: The Ki was > 10 µM.

Q: What about the Ki [15] of the same compound?
A: The Ki was > 10 µM.

Q: And the NPT [16, 26]?
A: The NPT was 26.98±5.89 nmoles/mg protein.

Q: What about the NPT ([16]; mouse, in vivo) of the same compound?
A: Its NPT is 29.06±3.80 nmoles/mg protein.

Q: What about the “expression of myelin content (MBP)” value [17] of the same compound?
A: The value was “significantly higher expression of myelin content and preservation of axonal dendritic integrity in the deep cortical layers”.

Q: What about the “cell death in vanadium-treated hippocampal slices (propidium iodide uptake)” value [18] of the same compound?
A: Its value is “gradual reduction in cell death with increasing concentrations”.

Q: What about the “concentration of peak protection against vanadium-induced cell death” value [18] of the same compound?
A: Its value is 100 µM.

Q: And the Ki [19]?
A: Its Ki is 3.04 µM.

Q: And the “difference in affinity GluN1/GluN2A vs GluN1/GluN2B” value [20]?
A: Its value is “No significant difference in affinity”.

Q: What about the NO [21, 26] of the same compound?
A: Its NO is 0.34±0.03 μmole/mg protein.

Q: And the NO ([21]; mouse, in vivo)?
A: The NO was 0.32±0.03 μmole/mg protein.

Q: And the TNF-α expression ([22]; ZA-II-05 only 100 mg/kg, all brain regions vs other groups)?
A: The TNF-α expression was “upregulated the expression of TNF-α significantly (p < 0.05) in all the brain regions”.

Q: And the “cytoplasmic TNF-α expression” value ([22]; […] + ZA-II-05-treated groups vs […] group)?
A: The value was “reduced cytoplasmic TNF-α expression compared to vanadium group”.

Q: And the THIOL [23, 26]?
A: The THIOL was 28.62±6.72 nmoles/mg/protein.

Q: And the THIOL ([23]; mouse, in vivo)?
A: The THIOL was 25.06±4.68 nmoles/mg/protein.

Q: And the Ki [24]?
A: Its Ki is 0.0055 µM.

Q: And the “VIT. C” value [25, 26]?
A: Its value is 0.17±0.02 nmoles/mg protein.

Q: And the “VIT. C” value ([25]; mouse, in vivo)?
A: The value was 0.20±0.04 nmoles/mg protein.
